Assay results as given in patent US11564923B2, “Compounds and pharmaceutical compositions thereof for the treatment of inflammatory disorders” (Galapagos NV, priority 2017, dated 2023).
Counter-ions that a name gives are not always drawn.

Legend:
[1] = target: T1, Recombinant human TYK2 catalytic domain (amino acids 871-1187) (Homo sapiens, UniProt P29597); test: TYK2 radioactive assay polyGT substrate; format: biochemical; further: 0.1 µM ATP
T1 construct: catalytic domain (amino acids 871-1187)
T1 sequence (P29597 871-1187): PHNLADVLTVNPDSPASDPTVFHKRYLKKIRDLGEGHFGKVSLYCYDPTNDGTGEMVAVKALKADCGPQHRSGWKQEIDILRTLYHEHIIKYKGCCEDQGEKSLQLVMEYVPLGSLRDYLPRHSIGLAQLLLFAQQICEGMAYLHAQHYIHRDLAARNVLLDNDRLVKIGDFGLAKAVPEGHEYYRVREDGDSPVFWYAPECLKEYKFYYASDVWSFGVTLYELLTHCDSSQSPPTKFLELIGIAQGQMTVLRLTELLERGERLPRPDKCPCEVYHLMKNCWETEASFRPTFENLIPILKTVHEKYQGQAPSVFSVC
Protocol: After 120 min at 30° C., reactions were stopped by adding 25 μL/well of 150 mM phosphoric acid. […] Plates were washed 6 times with 300 μL per well of a 75 mM phosphoric acid solution and the bottom of the plates is sealed. […] Kinase activity is calculated by subtracting counts per min (cpm) obtained in the presence of a positive control inhibitor (10 μM staurosporine) from cpm obtained in the presence of vehicle. The ability of a test compound to inhibit this activity (or percentage inhibition) is determined as: […]
cpm test compound=cpm determined for sample with test compound present cpm control=cpm determined for sample with positive control inhibitor cpm vehicle=cpm determined in the presence of vehicle
Dose dilution series were prepared for the compounds enabling the testing of dose-response effects in the TYK2 assay and the calculation of the IC50 for each compound. Each compound is routinely tested at concentration of 20 μM followed by a 1/5 serial dilution, 10 points in a final concentration of 1% DMSO.

[2] = system: IFNα activation of STAT1 in PBMC; test: IFNα activation of STAT1 in PBMC; format: cell-based; details: Homo sapiens; IFNα activation of STAT1 in PBMC; average IC50; read-out: IFNα signaling inhibitory potency IC50
Protocol: After these 2 wash steps the cell pellet is dissolved in ammonium chloride buffer (1.5 M NH4Cl, 100 mM NaHCO3 and 10 mM Na2.EDTA) for lysis of the red blood cells.
PBMC are treated with test compound for 30 min at 37° C. 5% CO2. […] After 30 min of test compound/vehicle pre-treatment, PBMC are stimulated for 30 min at 37° C. 5% CO2 with recombinant human IFNα (PeproTech, catalog number 300-02A) at a final concentration of 5 ng/mL by addition of 20 μL (10× concentrated) cytokine trigger to obtain a final volume of 200 μL per well.
After 30 min of cytokine stimulation, 200 μL of cell suspension is transferred to a 96-well V-bottom plate, centrifugated for 5 min at 1000 rpm to pellet cells, followed by removal of supernatant.
(§1) The percentage inhibition is calculated as: […]
RCLU(vehicle control): Relative Chemiluminescent signal determined in presence of vehicle and trigger
RCLU(test compound): Relative Chemiluminescent signal determined in presence of test compounds and trigger
RCLU(positive control): Relative Chemiluminescent signal determined in presence of positive control and trigger
PIN values are plotted for compounds tested in dose-response and average IC50 values are derived using GraphiPad Prism Software applying non-linear regression (sigmoidal) curve fitting.

[3] = system: IL-12 activation of STAT4 in NK-92 cells; test: IL-12 activation of STAT4 in NK-92 cells using AphaLISA SureFire technology; format: cell-based; details: Homo sapiens, NK92; IL-12 activation of STAT4 in NK-92 cells, AlphaLISA SureFire; average IC50; read-out: IL12 pSTAT4 IC50
Protocol: IL-2 is added freshly to the medium with each medium refreshment step. Cells are cultured in a humidified incubator at 37° C. 5% CO2.
A subcultured fraction of NK-92 cells is washed once in culture medium without rhIL-2 the day before the experiment and incubated overnight in a culture flask.
5% CO2. […] NK-92 cells are triggered with rhIL-12 for 30 min at 37° C. 5% CO2.
After 30 min of cytokine stimulation the cells are lysed by addition of 15 μL 5× lysis buffer (supplemented with the AlphaLISA kit). After 10 minutes, plates are frozen at −80° C. overnight and the next day the levels of phospho-STAT4 are quantified using the AlphaLISA SureFire ULTRA p-STAT4 (Tyr693) (Perkin Elmer, Catalogue number ALSU-PST4-A10K) according to the manufacturers instructions. AlphaLISA signal (relative light units) is measured using an Envision (Perkin Elmer).
as §1
RLU(trigger/veh): Relative lumescent signal determined in presence of vehicle and trigger
RLU(test compound): Relative luminescent signal determined in presence of test compounds and trigger
PIN values are plotted for compounds tested in dose-response and IC50 values are derived using GraphPad Prism Software applying non-linear regression (sigmoidal) curve fitting. The data are expressed as the average IC50 from different experiments.

Row | SMILES | IC50 [1] [nM] | IC50 [2] [nM] | IC50 [3] [nM]
1 | Cc1cc(C#N)ncc1Oc1cc(Nc2ccc(CN3CCOCC3)cn2)c2ncn(C)c2n1 [Compound 82, 4-methyl-5-[3-methyl-7-[[5-(morpholin-4-ylmethyl)pyridin-2-yl]amino]imidazo[4,5-b]pyridin-5-yl]oxypyridine-2-carbonitrile formate salt] | 8.15 | 126 | 195
2 | Cc1cc(C#N)ncc1Oc1cc(Nc2ccc(OC3CN(C)C3)nn2)c2ncn(C)c2n1 [Compound 90, 4-methyl-5-[3-methyl-7-[[6-(1-methylazetidin-3-yl)oxypyridazin-3-yl]amino]imidazo[4,5-b]pyridin-5-yl]oxypyridine-2-carbonitrile] | 12.4 | 288 | 1520
3 | Cc1cc(C#N)ncc1Oc1cc(Nc2ccc(C(=O)N3CC(O)C3)cn2)c2ncn(C)c2n1 [Compound 96, 5-[7-[[5-(3-hydroxyazetidine-1-cabonyl)-2-pyridyl]amino]-3-methyl-imidazo[4,5-b]pyridin-5-yl]oxy-4-methyl-pyridine-2-carbonitrile] | 2.51 | 73 | 358
4 | COC1CN(C(=O)c2ccc(Nc3cc(Oc4cnc(C#N)cc4C)nc4c3ncn4C)nc2)C1 [Compound 103, 5-[7-[[5-(3-methoxyazetidine-1-carbonyl)-2-pyridyl]amino]-3-methyl-imidazo[4,5-b]pyridin-5-yl]oxy-4-methyl-pyridine-2-carbonitrile] | 2.73 | 68 | 63.5
5 | COCC1CN(C(=O)c2ccc(Nc3cc(Oc4cnc(C#N)cc4C)nc4c3ncn4C)nc2)C1 [Compound 104, 5-[7-[[5-[3-(methoxymethyl)azetidine-1-carbonyl]-2-pyridyl]amino]-3-methyl-imidazo[4,5-b]pyridin-5-yl]oxy-4-methyl-pyridine-2-carbontrile] | 2.88 | 65 | 108
6 | Cc1cc(C#N)ncc1Oc1cc(Nc2ccc(C(=O)N3CC[C@@H](N(C)C)C3)cn2)c2ncn(C)c2n1 [Compound 107, 5-[7-[[5-[(3R)-3-(dimethylamino)pyrrolidine-1-carbonyl]pyridin-2-yl]amino]-3-methylimidazo[4,5-b]pyridin-5-yl]oxy-4-methylpyridine-2-carbonitrile] | 5.44 | 110 | 622
7 | Cc1cc(C#N)ncc1Oc1cc(Nc2ccc(C(=O)N3CCOCC3)nn2)c2ncn(C)c2n1 [Compound 108, 4-methyl-5-[3-methyl-7-[[6-(morpholine-4-carbonyl)pyridazin-3-yl]amino]imidazo[4,5-b]pyridin-5-yl]oxypyridine-2-carbonitrile] | 2.63 | 52 | 94
8 | Cc1cc(C#N)ncc1Oc1cc(Nc2ccc(C(=O)N3CC(CO)C3)cn2)c2ncn(C)c2n1 [Compound 118, 5-[7-[[5-[3-(hydroxymethyl)azetidine-1-carbonyl]-2-pyridyl]amino]-3-methyl-imidazo[4,5-b]pyridin-5-yl]oxy-4-methyl-pyridine-2-carbonitrile] | 2.81 | 110 | 299
9 | Cc1cc(C#N)ncc1Oc1cc(Nc2ccc(C(=O)N3CC(C)(O)C3)cn2)c2ncn(C)c2n1 [Compound 119, 5-[7-[[5-(3-hydroxy-3-methyl-azetidine-1-carbonyl)-2-pyridyl]amino]-3-methyl-imidazo[4,5-b]pyridin-5-yl]oxy-4-methyl-pyridine-2-carbonitrile] | 2.56 | 81 | 261
10 | Cc1cc(C#N)ncc1Oc1cc(Nc2ccc(C(=O)N3CC[C@H](N(C)C)C3)cn2)c2ncn(C)c2n1 [Compound 133, 5-[7-[[5-[(3S)-3-(dimethylamino)pyrrolidine-1-carbonyl]pyridin-2-yl]amino]-3-methylimidazo[4,5-b]pyridin-5-yl]oxy-4-methylpyridine-2-carbonitrile] | 6.67 | 121 | 981
